Measured values reported in patent publication US5286729A, “Angiotensin II receptor blocking 2,3,6 substituted quinazolinones” (American Cyanamid Company, priority 1993, dated 1994).

Target: T1, Angiotensin II Receptor (Bos taurus, UniProt P25104)
T1 construct: The brownish tissue forming the adrenal cortex is scraped off and finely minced with scissors before homogenization; from tissue; host or cells: beef adrenal cortex, microsomal (100,000 x g) membranes; adrenals from a local slaughter house (Maxwell-Cohen)
T1 sequence (P25104 1-359): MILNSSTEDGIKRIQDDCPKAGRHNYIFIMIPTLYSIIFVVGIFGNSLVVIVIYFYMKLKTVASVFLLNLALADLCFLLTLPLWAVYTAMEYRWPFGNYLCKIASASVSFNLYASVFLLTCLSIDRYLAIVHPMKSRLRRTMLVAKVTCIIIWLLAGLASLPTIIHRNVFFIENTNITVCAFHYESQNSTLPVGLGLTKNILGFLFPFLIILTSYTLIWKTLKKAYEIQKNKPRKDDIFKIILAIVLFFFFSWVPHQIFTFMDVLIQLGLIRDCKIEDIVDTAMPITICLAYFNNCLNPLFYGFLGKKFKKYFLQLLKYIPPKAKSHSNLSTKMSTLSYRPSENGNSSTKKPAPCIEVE
Experiment: Receptor Binding Assay, binding of [125I](Sar1,Ile8)AngII to beef adrenal cortex membranes
Details: radioligand; non-specific binding with 1.0 uM unlabeled (Sar1,Ile8)AngII
Text: Beef adrenals are obtained from a local slaughter house (Maxwell-Cohen). [^125 I](Sar^1,Ile^8)AngII, S.A. 2200 Ci/mmole, is purchased from Dupont (NEN®, Boston, Mass.).
Approximately sixteen (16) to twenty (20) beef adrenal glands are processed as follows: fresh adrenal glands received on crushed ice are cleaned of fatty tissues and the tough membranes encapsulating the glands are removed and discarded. The brownish tissue forming the adrenal cortex is scraped off and finely minced with scissors before homogenization. Care is taken to avoid contamination with medullary tissue during dissection. The scraped cortices are suspended in twenty volumes of an ice-cold buffer medium consisting of 10 mM Tris.HCl (pH 7.4 at 22° C.) and containing 1.0 mM EDTA and 0.2M sucrose. Unless otherwise indicated, all subsequent operations are done at 4° C. […] The homogenate is centrifuged first at low speed (3,000×g) for 10 min. […] The pelleted membrane is reconstituted in 50.0 mM Tris.HCl buffer containing 0.1 mM of phenylmethylsulfonyl fluoride (PMSF) to give approximately a protein concentration of 2.5 mg per ml of tissue suspension. The membrane preparation is finally aliquoted in 1.0 ml volumes and stored at -70° C. until use in the binding assays. […]

- Specific binding: greater than 90%
Substance: [^125 I](Sar^1, Ile^8) AngII [reference compound]
